# Data reported in US20080254993A1, “Use of abscisic acid analogs to enhance growth control” (priority 2007, published 2008).
# Key:
# Kentucky bluegrass = assay: Greenhouse study on Kentucky bluegrass: turfgrass height, clip weight, turfgrass quality (Example 1); format: in vivo
# Experimental: Greenhouse studies were conducted at the Research Farm of Valent BioSciences Corporation (Long Grove, Ill.). Grasses were grown in pots (18 cm in diameter and 18 cm in height) filled with Promix BX (available from Premier Horticulture Inc. Quakertown, Pa.). Grass was irrigated daily by an overhead irrigation system. The irrigation system was set up with multiple Tornado Mist Spray Heads (10 GPH at 40 PSI-Wetted diameter, NDS/Raindrip, Woodland Hills, Calif.). Spray heads were 1-meter apart from each other and 75 cm above grass canopy. Grass was cut with a scissor at 2.5 cm height and fertilizer (1 g/L all purpose fertilizer 20-20-20, available from The Scotts Company, Marysville, Ohio) was applied once per week.
# (§1) Chemical solutions were prepared with distilled water. Tween 20 (0.05% v/v) was used as the surfactant when necessary. Trinexapac-ethyl (commercial product Primo Maxx, 11.3% active ingredient) was purchased from Syngenta Crop Protection Inc. (Greensboro, N.C.). ABA analogs, 8′ acetylene-ABA, acid (PBI-524), 8′ acetylene-ABA, ester (PBI-429), 8′ cyclopropane ester (PBI-696), or Tetralone, first carbon tail acetylene, ester (PBI-702), were obtained from Plant Biotechnology Institute, National Research Council of Canada (Saskatoon, Saskatchewan, Canada).
# (§2) Chemical solutions were foliar applied to the turfgrass canopy at the rate of 4-gallons/1000 square foot (or 0.163 L/m^−2) immediately after finishing the preparation of solutions. After treatment, turfgrasses were arranged in a randomized complete block experimental design. Turfgrass quality, turfgrass height or clip fresh weight was measured on assigned dates. Turfgrass quality was visually rated on a 0-9 scale based on the color, uniformity, and density of the grass with 0 as the worst and 9 as the best. Turfgrass height was measured as the distance between canopy surface and soil. Clippings were collected form each plot; all plots were cut to a uniform height.
# (§3) All experiments were randomized complete block experimental design. Data were analyzed by analysis of variance. Duncan's new multiple range tests at α=0.05 were used for mean separations.
# Kentucky bluegrass sod was purchased from Deak sod farms, Inc. (Union Grove, Wis.). Grass was grown in the greenhouse for 94 days for establishment. Turfgrass was treated with one time foliar application of 50 ppm PBI-524, PBI-429, PBI-696 or PBI-702 alone or in combination with 250 ppm trinexapac-ethyl. The turfgrass was cut every 7 days. Turfgrass quality, turfgrass height, and clip weight were measured on days 7 and 35 after treatment.
# creeping bentgrass = assay: Golf course green field study on creeping bentgrass with PBI-429: turfgrass height, soil moisture, turf quality (Example 2); format: in vivo, Penncross creeping bentgrass; conditions: for Soil moisture / Turfgrass height / Turf quality: 50 ppm PBI-429 alone; for Soil moisture (in words) / Turfgrass height (in words): trinexapac-ethyl 25 ppm, PBI-429 50 ppm, alone or combined; for Turf quality: visual 0-9 scale, 9 best
# Experimental: Field studies were conducted at the nursery green or the practice green at Countryside golf course (Mundelein, Ill.). Both greens were sand based and growing Penncross creeping bentgrass. Grass was managed with typical Illinois golf course management practices.
# as §1, §2, §3
# Trinexapac-ethyl (25 ppm) or PBI-429 (50 ppm) were one time foliar applied alone or in combination to creeping bentgrass in the golf course green to investigate their effect on turfgrass quality, growth inhibition and soil moisture.
# tomato = assay: Tomato plant height, growth rate and leaf number, greenhouse (Example 5); format: in vivo, Tomato (variety: Rutgers)
# Excerpt: The effect of ABA analog (PBI-429) and trinexapac-ethyl combinations on transpiration and growth inhibition of dicotyledonous (tomato) was also examined in the greenhouse condition. Tomato (variety: Rutgers) seeds were sown in 18-cell flat filled with Promix PGX (available from Premier Horticulture Inc. Quakertown, Pa.) and grown for 3 weeks to allow for germination and initial growth. Plants were then transplanted into pots (18 cm in diameter and 18 cm in height), filled with Promix BX (available from Premier Horticulture Inc. Quakertown, Pa.), and grown for one week before the chemical treatment. Plants received daily irrigation and weekly fertilizer (1 g/L all purpose fertilizer 20-20-20, available from The Scotts Company, Marysville, Ohio). During the chemical treatment, a 24 mL (4 mL/plant) solution was foliar sprayed on the tomato canopy. Leaf transpiration rates were measured using a LI-1600 Steady State Porometer (LI-Cor, Lincoln, Nebr.) at 3, 5, 7, 10, and 14 days after treatment. The leaf transpiration rate was normalized to the percentage of control plant to minimize the experimental errors caused by environmental factors. Plant height was measured at 0, 3, 5, 7, 10 and 14 days after treatment. The growth rate was calculated based on the changes of plant height in certain intervals. The plants were harvested and the leaf number was counted at 14 days after treatment.
# [1] = 7 days after treatment, 50 ppm ABA analog alone
# [2] = 35 days after treatment, 50 ppm ABA analog alone
# [3] = 25 ppm PBI-429, 3 days after treatment
# [4] = 25 ppm PBI-429, 5 days after treatment
# [5] = 25 ppm PBI-429, 7 days after treatment
# [6] = 25 ppm PBI-429, 10 days after treatment
# [7] = 25 ppm PBI-429, 14 days after treatment
# [8] = 50 ppm PBI-429, 3 days after treatment
# [9] = 50 ppm PBI-429, 5 days after treatment
# [10] = 50 ppm PBI-429, 7 days after treatment
# [11] = 50 ppm PBI-429, 10 days after treatment
# [12] = 50 ppm PBI-429, 14 days after treatment
# [13] = 100 ppm PBI-429, 3 days after treatment
# [14] = 100 ppm PBI-429, 5 days after treatment
# [15] = 100 ppm PBI-429, 7 days after treatment
# [16] = 100 ppm PBI-429, 10 days after treatment
# [17] = 100 ppm PBI-429, 14 days after treatment
# [18] = 200 ppm PBI-429, 3 days after treatment
# [19] = 200 ppm PBI-429, 5 days after treatment
# [20] = 200 ppm PBI-429, 7 days after treatment
# [21] = 200 ppm PBI-429, 10 days after treatment
# [22] = 200 ppm PBI-429, 14 days after treatment
# [23] = PBI-429 25-200 ppm, trinexapac-ethyl 250-2000 ppm, alone or combined
smiles,measurement,setting,value
"C#CC1(C)CC(=O)C=C(C)C1(O)/C=C/C(C)=C\C(=O)OC (stereo not shown) [PBI-429, 8′ acetylene-ABA, ester]",Clip Weight,Kentucky bluegrass; [1],0.4 g
same,Turfgrass height,Kentucky bluegrass; [1],5.8 cm
same,Turfgrass quality,"Kentucky bluegrass; 7 days after treatment, 50 ppm ABA analog alone, visual 0-9 scale, 9 best",6.6
same,Turfgrass height and clip weight compared to the control (in words),"Kentucky bluegrass; 7 days after treatment, trinexapac-ethyl 250 ppm, PBI-524 or PBI-429 50 ppm, alone or combined",reduced turfgrass height and clip weight compared to the control
same,Clip Weight,Kentucky bluegrass; [2],2.3 g
same,Turfgrass height,Kentucky bluegrass; [2],8.1 cm
same,Turfgrass height and clip weight (in words),Kentucky bluegrass; [2],no longer reduced turfgrass height and clip weight
same,Soil moisture,creeping bentgrass; 4 days after treatment,13.3%
same,Turfgrass height,creeping bentgrass; 4 days after treatment,6.7 mm
same,Soil moisture (in words),creeping bentgrass; 4 days after treatment,increase soil moisture
same,Turfgrass height (in words),creeping bentgrass; 4 days after treatment,reduced turfgrass height more than the combination of trinexapac-ethyl and PBI-429
same,Soil moisture,creeping bentgrass; 7 days after treatment,13.1%
same,Turfgrass height,creeping bentgrass; 7 days after treatment,6.3 mm
same,Turf quality,creeping bentgrass; 7 days after treatment,7.1
same,Soil moisture (in words),creeping bentgrass; 7 days after treatment,increase soil moisture
same,Turfgrass height (in words),creeping bentgrass; 7 days after treatment,reduced turfgrass height similarly
same,Soil moisture,creeping bentgrass; 38 days after treatment,12.9%
same,Turfgrass height,creeping bentgrass; 38 days after treatment,5.5 mm
same,Turf quality,creeping bentgrass; 38 days after treatment,8.0
same,Plant height,"tomato; 25 ppm PBI-429, 0 days after treatment",6.3 cm
same,Growth rate,tomato; [3],0.8 cm/day
same,Plant height,tomato; [3],8.6 cm
same,Growth rate,tomato; [4],0.9 cm/day
same,Plant height,tomato; [4],10.4 cm
same,Growth rate,tomato; [5],1.2 cm/day
same,Plant height,tomato; [5],12.8 cm
same,Growth rate,tomato; [6],1.1 cm/day
same,Plant height,tomato; [6],16.0 cm
same,Growth rate,tomato; [7],1.2 cm/day
same,Leaf number,tomato; [7],11.0
same,Plant height,tomato; [7],20.7 cm
same,Plant height,"tomato; 50 ppm PBI-429, 0 days after treatment",6.3 cm
same,Growth rate,tomato; [8],0.6 cm/day
same,Plant height,tomato; [8],8.8 cm
same,Growth rate,tomato; [9],0.6 cm/day
same,Plant height,tomato; [9],10.0 cm
same,Growth rate,tomato; [10],0.8 cm/day
same,Plant height,tomato; [10],11.6 cm
same,Growth rate,tomato; [11],0.8 cm/day
same,Plant height,tomato; [11],13.9 cm
same,Growth rate,tomato; [12],1.1 cm/day
same,Leaf number,tomato; [12],11.0
same,Plant height,tomato; [12],18.2 cm
same,Plant height,"tomato; 100 ppm PBI-429, 0 days after treatment",6.3 cm
same,Growth rate,tomato; [13],0.6 cm/day
same,Plant height,tomato; [13],8.4 cm
same,Growth rate,tomato; [14],0.5 cm/day
same,Plant height,tomato; [14],9.4 cm
same,Growth rate,tomato; [15],0.7 cm/day
same,Plant height,tomato; [15],10.8 cm
same,Growth rate,tomato; [16],0.7 cm/day
same,Plant height,tomato; [16],12.8 cm
same,Growth rate,tomato; [17],0.9 cm/day
same,Leaf number,tomato; [17],10.8
same,Plant height,tomato; [17],16.2 cm
same,Plant height,"tomato; 200 ppm PBI-429, 0 days after treatment",6.4 cm
same,Growth rate,tomato; [18],0.5 cm/day
same,Plant height,tomato; [18],7.9 cm
same,Growth rate,tomato; [19],0.4 cm/day
same,Plant height,tomato; [19],8.7 cm
same,Growth rate,tomato; [20],0.5 cm/day
same,Plant height,tomato; [20],9.6 cm
same,Growth rate,tomato; [21],0.4 cm/day
same,Plant height,tomato; [21],10.9 cm
same,Growth rate,tomato; [22],0.7 cm/day
same,Leaf number,tomato; [22],10.5
same,Plant height,tomato; [22],13.8 cm
same,Tomato leaf number (in words),"tomato; 14 days after treatment, PBI-429 25-200 ppm, trinexapac-ethyl 250-2000 ppm, alone or combined",only significantly reduced leaf number at the highest rate
same,Tomato growth rate in terms of plant height (in words),tomato; [23],decreased tomato growth rate
same,Tomato plant height (in words),tomato; [23],decreased tomato plant height
